Assay results: patent US20090069320A1, “Substituted 4-Amino-Quinazoline Compounds with Metabotropic Glutamate Receptor Regulating Activity and Uses Thereof” (Gruenenthal GmbH, priority 2006, published 2009)

target: T1, mGluR5 receptor (Sus scrofa, UniProt I3LUI7); test: [3H]-MPEP mGluR5 receptor binding assay (pig brain homogenate); conditions: 10 μM compound, 5 nM [3H]-MPEP, read-out: % Inhibition of mGluR5 Receptor (pig) [^3H]-MPEP Bond at 10 μM
T1 construct: 450 μg of protein from brain homogenate with 5 nM ^3[H]-MPEP; from tissue; host or cells: pig brain halves without medulla, cerebellum and pons
Protocol: I. Method for Determining the Inhibition of the [^3H]-MPEP Bond in the mGluR5 Receptor Binding Assay
Pig brain homogenate is produced by homogenizing (Polytron PT 3000, Kinematica AG, 10 000 rpm for 90 seconds) pig brain halves without medulla, cerebellum and pons in pH 8.0 buffer (20 mM Hepes, Sigma, order no. H3375+1 complete tablet, 100 ml, Roche Diagnostics, order no. 1836145) in the ratio of 1:20 (brain weight/volume) and differential centrifuging at 900×g and 40 000×g. In incubation batches of 250 μl in 96-well microtitre plates 450 μg of protein from brain homogenate with 5 nM ^3[H]-MPEP (Tocris, order no. R1212) (MPEP=[…]) and the compounds to be examined (10 μM in test) in buffer (as above) are respectively incubated at room temperature for 60 minutes.
The batches are then filtered using a Brandel cell harvester (Brandel, Robotic 9600) on unifilter plates with fibreglass filter mats (Perkin Elmer, order no. 6005177) and then washed with buffer (as above) 3-times each with 250 μl per sample. The filter plates are then dried for 60 mins. at 55° C. Then, 30 μL of Ultima Gold™ scintillator (Packard BioScience, order no. 6013159) are added per well and after 3 hours the samples are measured on the β-counter (MicroBeta, Perkin Elmer). The non-specific binding is determined by adding 10 μM of MPEP (Tocris, order no. 1212).

T1 sequence (I3LUI7 19-1212): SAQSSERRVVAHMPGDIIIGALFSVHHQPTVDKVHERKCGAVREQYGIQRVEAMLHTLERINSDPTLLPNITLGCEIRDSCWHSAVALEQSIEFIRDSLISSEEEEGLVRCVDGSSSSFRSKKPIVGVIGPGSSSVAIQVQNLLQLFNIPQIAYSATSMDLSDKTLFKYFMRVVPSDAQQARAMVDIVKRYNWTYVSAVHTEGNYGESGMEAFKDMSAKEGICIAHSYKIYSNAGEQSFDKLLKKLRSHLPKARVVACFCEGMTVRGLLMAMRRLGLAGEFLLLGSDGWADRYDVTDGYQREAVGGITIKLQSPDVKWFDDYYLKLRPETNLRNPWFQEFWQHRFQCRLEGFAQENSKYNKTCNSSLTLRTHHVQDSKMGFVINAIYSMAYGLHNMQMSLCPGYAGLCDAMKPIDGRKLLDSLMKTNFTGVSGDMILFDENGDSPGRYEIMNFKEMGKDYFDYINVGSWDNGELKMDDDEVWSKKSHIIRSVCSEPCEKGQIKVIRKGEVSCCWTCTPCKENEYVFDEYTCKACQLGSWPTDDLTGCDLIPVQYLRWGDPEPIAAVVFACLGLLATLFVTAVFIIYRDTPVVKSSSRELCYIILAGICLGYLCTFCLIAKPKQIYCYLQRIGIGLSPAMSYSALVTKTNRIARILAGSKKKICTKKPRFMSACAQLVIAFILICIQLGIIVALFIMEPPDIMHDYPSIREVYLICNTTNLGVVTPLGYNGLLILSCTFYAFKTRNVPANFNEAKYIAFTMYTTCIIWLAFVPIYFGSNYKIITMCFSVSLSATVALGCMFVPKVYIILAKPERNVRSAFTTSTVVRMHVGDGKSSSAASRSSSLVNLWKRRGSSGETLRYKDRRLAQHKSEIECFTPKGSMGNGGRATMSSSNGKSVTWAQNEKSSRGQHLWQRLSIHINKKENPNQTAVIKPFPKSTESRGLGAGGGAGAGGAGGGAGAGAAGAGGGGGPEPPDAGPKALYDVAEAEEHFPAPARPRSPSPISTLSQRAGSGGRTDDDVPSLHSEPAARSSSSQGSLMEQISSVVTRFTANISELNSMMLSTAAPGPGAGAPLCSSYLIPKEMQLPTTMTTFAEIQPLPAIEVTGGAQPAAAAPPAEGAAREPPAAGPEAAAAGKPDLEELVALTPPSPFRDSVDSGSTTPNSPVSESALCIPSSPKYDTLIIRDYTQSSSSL

SMILES | inhibition at 10 µM [%]
CC(C)Nc1ncnc2ccc(-c3cccc(CN(Cc4ccccc4)C(=O)c4ccco4)c3)cc12 [Example 149, furan-2-carboxylic acid benzyl-[3-(4-isopropylamino-quinazolin-6-yl)-benzyl]-amide] | 32
CC(C)Nc1ncnc2ccc(-c3cccc(CN(Cc4ccccc4)C(=O)c4ccccc4Cl)c3)cc12 [Example 150, N-benzyl-2-chloro-N-[3-(4-isopropylamino-quinazolin-6-yl)-benzyl]-benzamide] | 40
CC(C)Nc1ncnc2ccc(-c3cccc(CN(Cc4ccccc4)C(=O)c4ccncc4)c3)cc12 [Example 151, N-benzyl-N-[3-(4-isopropylamino-quinazolin-6-yl)-benzyl]-isonicotinamide] | 66
O=C(c1ccc(C(F)(F)F)cc1F)N(Cc1ccccc1)Cc1cccc(-c2ccc3ncnc(NC4CC4)c3c2)c1 [Example 152, N-benzyl-N-[3-(4-cyclopropylamino-quinazolin-6-yl)-benzyl]-2-fluoro-4-trifluoromethyl-benzamide] | 45
CC(C)Nc1ncnc2ccc(-c3cccc(CN(Cc4ccccc4)C(=O)c4cccnc4)c3)cc12 [Example 153, N-benzyl-N-[3-(4-isopropylamino-quinazolin-6-yl)-benzyl]-nicotinamide] | 63
CC(C)Nc1ncnc2ccc(-c3cccc(CN(Cc4ccccc4)C(=O)c4cccs4)c3)cc12 [Example 154, thiophene-2-carboxylic acid benzyl-[3-(4-isopropylamino-quinazolin-6-yl)-benzyl]-amide] | 37
COc1ccc(C(=O)N(Cc2ccccc2)Cc2cccc(-c3ccc4ncnc(NC(C)C)c4c3)c2)cc1 [Example 155, N-benzyl-N-[3-(4-isopropylamino-quinazolin-6-yl)-benzyl]-4-methoxy-benzamide] | 67
O=C(c1ccccc1O)N(Cc1cccc(-c2ccc3ncnc(NC4CC4)c3c2)c1)C1CC1 [Example 156, N-cyclopropyl-N-[3-(4-cyclopropylamino-quinazolin-6-yl)-benzyl]-2-hydroxy-benzamide] | 90
O=C(c1ccccc1Br)N(Cc1cccc(-c2ccc3ncnc(NC4CC4)c3c2)c1)C1CC1 [Example 157, 2-bromo-N-cyclopropyl-N-[3-(4-cyclopropylamino-quinazolin-6-yl)-benzyl]-benzamide] | 90
COc1ccc(C(=O)N(Cc2cccc(-c3ccc4ncnc(NC5CC5)c4c3)c2)C2CC2)cc1OC [Example 158, N-cyclopropyl-N-[3-(4-cyclopropylamino-quinazolin-6-yl)-benzyl]-3,4-dimethoxy-benzamide] | 81
O=C(c1cc2ccccc2cn1)N(Cc1cccc(-c2ccc3ncnc(NC4CC4)c3c2)c1)C1CC1 [Example 159, isoquinoline-3-carboxylic acid cyclopropyl-[3-(4-cyclopropylamino-quinazolin-6-yl)-benzyl]-amide] | 85
O=C(c1ccc(Cl)cc1)N(Cc1cccc(-c2ccc3ncnc(NC4CC4)c3c2)c1)C1CC1 [Example 160, 4-chloro-N-cyclopropyl-N-[3-(4-cyclopropylamino-quinazolin-6-yl)-benzyl]-benzamide] | 70
N#Cc1ccc(C(=O)N(Cc2cccc(-c3ccc4ncnc(NC5CC5)c4c3)c2)C2CC2)cc1 [Example 161, 4-cyano-N-cyclopropyl-N-[3-(4-cyclopropylamino-quinazolin-6-yl)-benzyl]-benzamide] | 96
O=C(c1cnccn1)N(Cc1cccc(-c2ccc3ncnc(NC4CC4)c3c2)c1)C1CC1 [Example 162, pyrazine-2-carboxylic acid cyclopropyl-[3-(4-cyclopropylamino-quinazolin-6-yl)-benzyl]-amide] | 84
O=C(c1cccc(Br)n1)N(Cc1cccc(-c2ccc3ncnc(NC4CC4)c3c2)c1)C1CC1 [Example 163, 6-bromo-pyridine-2-carboxylic acid cyclopropyl-[3-(4-cyclopropylamino-quinazolin-6-yl)-benzyl]-amide] | 89
O=C(COc1ccccc1)N(Cc1cccc(-c2ccc3ncnc(NC4CC4)c3c2)c1)C1CC1 [Example 164, N-cyclopropyl-N-[3-(4-cyclopropylamino-quinazolin-6-yl)-benzyl]-2-phenoxy-acetamide] | 86
O=C(c1ccncc1)N(Cc1cccc(-c2ccc3ncnc(NC4CC4)c3c2)c1)C1CC1 [Example 165, N-cyclopropyl-N-[3-(4-cyclopropylamino-quinazolin-6-yl)-benzyl]-isonicotinamide] | 88
O=C(c1ccc(Br)s1)N(Cc1cccc(-c2ccc3ncnc(NC4CC4)c3c2)c1)C1CC1 [Example 166, 5-bromo-thiophene-2-carboxylic acid cyclopropyl-[3-(4-cyclopropylamino-quinazolin-6-yl)-benzyl]-amide] | 86
O=C(c1ccccc1C(F)(F)F)N(Cc1cccc(-c2ccc3ncnc(NC4CC4)c3c2)c1)C1CC1 [Example 167, N-cyclopropyl-N-[3-(4-cyclopropylamino-quinazolin-6-yl)-benzyl]-2-trifluoromethyl-benzamide] | 98
CCCC(=O)N(Cc1cccc(-c2ccc3ncnc(NC4CC4)c3c2)c1)C1CC1 [Example 168, N-cyclopropyl-N-[3-(4-cyclopropylamino-quinazolin-6-yl)-benzyl]-butyramide] | 90
O=C(c1ccco1)N(Cc1cccc(-c2ccc3ncnc(NC4CC4)c3c2)c1)C1CC1 [Example 169, furan-2-carboxylic acid cyclopropyl-[3-(4-cyclopropylamino-quinazolin-6-yl)-benzyl]-amide] | 91
O=C(c1ccccn1)N(Cc1cccc(-c2ccc3ncnc(NC4CC4)c3c2)c1)C1CC1 [Example 170, pyridine-2-carboxylic acid cyclopropyl-[3-(4-cyclopropylamino-quinazolin-6-yl)-benzyl]-amide] | 78
COc1ccc(C(=O)N(Cc2cccc(-c3ccc4ncnc(NC5CC5)c4c3)c2)C2CC2)cc1 [Example 171, N-cyclopropyl-N-[3-(4-cyclopropylamino-quinazolin-6-yl)-benzyl]-4-methoxy-benzamide] | 100
O=C(c1ccccc1Cl)N(Cc1cccc(-c2ccc3ncnc(NC4CC4)c3c2)c1)C1CC1 [Example 172, 2-chloro-N-cyclopropyl-N-[3-(4-cyclopropylamino-quinazolin-6-yl)-benzyl]-benzamide] | 99
CN(C)CC(=O)N(Cc1cccc(-c2ccc3ncnc(NC4CC4)c3c2)c1)C1CC1 [Example 173, N-cyclopropyl-N-[3-(4-cyclopropylamino-quinazolin-6-yl)-benzyl]-2-dimethylamino-acetamide] | 30
O=C(Cc1ccccn1)N(Cc1cccc(-c2ccc3ncnc(NC4CC4)c3c2)c1)C1CC1 [Example 174, N-cyclopropyl-N-[3-(4-cyclopropylamino-quinazolin-6-yl)-benzyl]-2-pyridin-2-yl-acetamide] | 97
Cc1ccc(C(=O)N(C)Cc2cccc(-c3ccc4ncnc(NC5CC5)c4c3)c2)cc1 [Example 175, N-[3-(4-cyclopropylamino-quinazolin-6-yl)-benzyl]-4,N-dimethyl-benzamide] | 85
